We go through one substance from publication PMC4209782 (Biochemical Journal, 2014).

What all share (assay type): binding
Experiment [1] addresses T1, 3×FLAG–SGK3-(1–162) PX domain wild-type (Homo sapiens, UniProt Q96BR1).
T1 construct: reaction chamber containing wild-type 3×FLAG–SGK3-(1–162) PX domain; host or cells: E. coli BL21-CodonPlus (DE3)-RIL (from general methods, not tied expressly to this protein)
T1 sequence (Q96BR1 1-162): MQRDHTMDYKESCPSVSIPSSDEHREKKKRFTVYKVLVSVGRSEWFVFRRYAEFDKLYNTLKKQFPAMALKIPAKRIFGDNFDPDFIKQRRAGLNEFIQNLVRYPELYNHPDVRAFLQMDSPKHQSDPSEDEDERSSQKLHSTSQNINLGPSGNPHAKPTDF
The experiment is described as follows: ITC, wild-type SGK3 PX domain. As to conditions: 30°C. How it is done: (§1) ITC experiments were carried out on a Microcal VP-ITC. A series of injections of peptide were made into an isolated chamber containing the protein at a constant temperature of 30°C. Heat changes within the cell were monitored during each injection of peptide and recorded as the total heat change per second over time. A binding isotherm was then fitted to data and expressed as the heat change per mol of peptide against the peptide/protein ratio. Injectant was PtdIns and PtdIns(3)P (Echelon) dissolved in buffer (50 mM Hepes, pH 7.4, and 150 mM NaCl). […] Data were analysed using Origin 7.0 with the Microcal software patch installed. […]
(§2) Figure 5 SGK3 binds to PtdIns(3)P via its PX domain (A) ITC was performed by gradually titrating 0.5 mM PtdIns(3)P into the reaction chamber containing wild-type 3×FLAG–SGK3-(1–162) PX domain (left panel) or mutant 3×FLAG–SGK3-(1–162) R50A PX domain (middle panel) and 3×FLAG–SGK3-(1–162) R90A PX domain (right panel). […] Kd were calculated using Origin 7.0 with ITC data analysis disc program. (B) The ability of the indicated GST fusion proteins to bind various phosphoinositides was analysed. […] The membranes were washed and the PX domain protein bound to the membrane by virtue of its interaction with lipid was detected using by using HRP-conjugated anti-FLAG antibodies (SGK3 PX domain) or anti-GST (PH domains).
On the technique in general: ITC needs no label: the signal is the heat of the interaction.

The test system of experiment [2] is T2, 3×FLAG–SGK3-(1–162) R90A PX domain.
T2 construct: 3×FLAG–SGK3-(1–162) R90A PX domain (right panel); host or cells: E. coli BL21-CodonPlus (DE3)-RIL (from general methods, not tied expressly to this protein)
The experiment is described as follows: ITC, SGK3 PX domain R90A. The method, then: as §1, §2

Experiment [3] deals with T3, 3×FLAG–SGK3-(1–162) R50A PX domain.
T3 construct: mutant 3×FLAG–SGK3-(1–162) R50A PX domain (middle panel); host or cells: E. coli BL21-CodonPlus (DE3)-RIL (from general methods, not tied expressly to this protein)
Put plainly: ITC, SGK3 PX domain R50A. How it is done:
as §1, §2

Where two headings read alike, the source gives them in different places.

Consider PtdIns(3)P, for which the Kd in experiment [1] (read-out: Kd1) turned out to be 1.8 µM; in experiment [1] (read-out: Kd2) it was 5.2 µM. Also, the “binding to PX domain with Arg90 to alanine mutation” value in experiment [2] is reported as “abolished binding”. Also, the “binding to PX domain with Arg50 to alanine mutation” value in experiment [3] is recorded as “abolished binding”.
